Test results published in patent US5034419A, “N-cycloalkylalkylamines, process for their preparation, their use as medicament and their synthesis intermediates” (L'Oreal, priority 1988, dated 1991).
Counter-ions that a name gives are not always drawn. Like-named read-outs stand apart in the source and are kept apart here.

How the values were obtained:
[1] = antagonism of amnesia caused by scopolamine, passive avoidance test; format: in vivo, mice
Protocol: The animal is introduced into the illuminated compartment, and when it moves to the dark compartment it receives an electric current (0.35 mA) through the base until it returns to the illuminated compartment, from where it is then removed.
After 24 hours, the operation is repeated. The mouse is replaced in the apparatus and it avoids entering into the dark compartment. The time which elapses before passage into this compartment is recorded; under the conditions of the experiment, the efficacy of the compounds under investigation in antagonizing the amnesic effect of scopolamine, which is administered intraperitoneally in an amount of 1 mg/kg 30 minutes before the animal is first introduced into the apparatus, can be evaluated.
In control mice which have received only scopolamine, the time elapsed before passage after 24 hours is remarkably lower than that observed in the untreated animals.
The study of the products according to the invention by this method is performed on groups of 18 mice and the products are administered orally on the first day in an amount of 0.25 mg/kg 30 minutes before administration of scopolamine i.p.

[2] = protection from convulsions induced by picrotoxin in mice; format: in vivo, "Swiss" male mice; conditions: for i.p.: % prot. (inhibition of convulsions induced by picrotoxin): 50 mg/kg i.p., picrotoxin 24 mg/kg i.p. 30 minutes later; for i.p.: % prot. (inhibition of convulsions induced by picrotoxin) / p.o.: % prot. (inhibition of convulsions induced by picrotoxin): * p<0.05, ** p<0.01, *** p<0.001; for p.o.: % prot. (inhibition of convulsions induced by picrotoxin): 100 mg/kg p.o., picrotoxin 24 mg/kg i.p. 60 minutes later; for ED50: Mus musculus
Protocol: b) The psychotropic properties of the compounds were determined by the protection from convulsions induced by picrotoxin in mice, which was realized in accordance with a method derived from that of Krall and coll., "Epilepsia", 1978, 19, p. 409-428.
The administration of picrotoxin to animals causes a convulsive attack characterized by a myoclonic extension syndrome followed by extension of the limbs leading to death of the animals. Certain substances, in particular those which act on the GABA/benzodiazepine/Cl-ionophor complex, provide protection of the animals from these convulsive attacks.
In practice, the study is carried out on groups of 10 "Swiss" male mice weighing about 20 g, to which the product under investigation is administered in aqueous solution either intraperitoneally (i.p.) or orally (p.o.).
An intraperitoneal injection of a solution of picrotoxin in an amount of 24 mg/kg in a volume of 0.2 ml per animal is then performed, either 30 minutes after intraperitoneal administration of the product or 60 minutes after oral administration of the product, the dose of the product injected in this way causing a clonic attack which leads to death of the untreated animals. Under the conditions of the test, suppression of the tonic extension phase is found in the animals treated.
The results are expressed:
either as the percentage of animals protected from this phase under the action of 50 mg/kg compound under investigation administered i.p. or 100 mg/kg p.o.,
or in the ED50 for each of these groups, which is the effective dose of the compound under investigation expressed in mg/kg which protects 50% of animals from this extension phase, the significance value of the results generally being indicated in the following manner: […]

kappa receptors = biological target: T1, kappa receptors (Cavia porcellus, UniProt P41144); assay: in vitro affinity for kappa receptors; format: binding; conditions: Table 3; read-out: kappa rec. IC50
T1 construct: from tissue
Protocol: (§1) The "in vitro" study of the affinity of the compounds according to the invention for the three opium receptors is carried out in accordance with the technique described by F. Roman and coll. in J. Pharm. Pharmacol. 1987, 39, p. 404-407 and the study of the affinity for PCP receptors is carried out in accordance with the technique described by Vignon J. and coll. in "Brain Res." 1983; 280, p. 194-7 and 1986; 378, p. 133-41.
(§2) The results shown in table 3 are, for each receptor studied, expressed in IC50, which are the nanomolar concentrations of the dissolved products which are capable of inhibiting 50% of the bonds between the specific radioactive ligand to the receptor under consideration.

mu receptors = assay: in vitro affinity for mu receptors; format: binding; conditions: Table 3; read-out: mu rec. IC50
Protocol: as §1, §2

PCP receptors = assay: in vitro affinity for phencyclidine (PCP) receptors; format: binding; conditions: Table 3; read-out: PCP rec. IC50
Protocol: as §1, §2

delta receptors = biological target: T2, delta receptors (Cavia porcellus, UniProt A0A286XTF2); assay: in vitro affinity for delta receptors; format: binding; conditions: Table 3; read-out: delta rec. IC50
T2 construct: from tissue
Protocol: as §1, §2

sigma receptors = biological target: T3, sigma receptors (Cavia porcellus, UniProt Q60492); assay: in vitro affinity for sigma receptors, competition with (+)[3H]SKF10,047; format: binding, guinea-pig (cerebral membranes)
T3 construct: sigma receptors of the cerebral membranes of the guinea-pig used in this study; from tissue; host or cells: guinea-pig cerebral membranes
Protocol: The test is carried out by incubating solutions of suitable concentrations of the products with standard samples of membranes and determining, after filtration, the residual radioactivity of the solution.

[3] = alkaline duodenal secretion in anaesthetized rats; format: in vivo, male rats; conditions: 1 mg/kg intravenously
Protocol: The activity of the products on alkaline duodenal secretion in rats is studied in accordance with a technique described by FLEMSTROM and coll. Gastroenterology, 1983, 84, p. 787-794.
The test comprises determination every 10 minutes, for 3 hours and in situ, of the alkaline secretion of a duodenal segment 12 mm in length, with no Brunner glands and situated 2 cm from the pylorus.
The study is performed on male rats of about 350 g previously anaesthetized, in which the duodenal segment chosen in cannulated by 2 glass tubes in accordance with the technique described by the author, and in which a luminal perfusate consisting of 5 ml isotonic NaCl solution is maintained at 37° C.
The variations in the intraluminal alkaline secretion are measured by pHmetry every 10 minutes by means of an automated system maintaining a constant pH of 7.4 by in situ addition of a 0.04N solution of hydrochloric acid. Fifty minutes after the start of the experiment, the products under investigation are administered intravenously or intraarterially in an amount of 1 mg/kg and the volume of hydrochloric acid introduced, which is a reflection of the in situ increase in alkaline secretion, is measured every 10 minutes for 3 hours with respect to the start of the experiment, that is to say for 130 minutes after injection of the product under investigation.
The following are determined for each product:
a) The maximum increase in secretion in micro-eq/cm/h under the action of the drug, taking into account the basal secretion of the same animals observed for 50 minutes before administration of the product.
The results are shown in table 6, which follows, for the products (I) according to the invention administered intravenously in an amount of 1 mg/kg.

[4] = inhibition of gastro-duodenal ulcers caused by cysteamine; format: in vivo, Wistar female rats; conditions: Rattus norvegicus; cysteamine hydrochloride 400 mg/kg s.c.; products orally or subcutaneously; read-out: ED50 - ulceration scores
Protocol: This activity is set in relation to the capacity of the products to cause an increase in the alkaline secretion in the duodenum in anaesthetized animals.
In this test, groups of 6 Wistar female rats with an average weight of 200 g receive a subcutaneous injection of cysteamine hydrochloride in an amount of 400 mg/kg. The products under investigation are administered orally or subcutaneously 1 h or, respectively, 30 minutes before the ulcerogenic agent.
Ten hours thereafter, the rats are sacrificed by elongation and their stomach and duodenum are removed, rinsed with physiological solution and mounted on a card. The presence of ulcers in the antro-pyloric-duodenal zone is examined and their area, expressed in mm^2, is evaluated by multiplying the two main perpendicular axis of the lesion. Statistical analysis of the results is performed with the aid of the Student test for the ulcerated areas in comparison with a control group receiving only excipient.
The results presented in table 5 are expressed in ED50 of ulceration scores, which are the effective doses, expressed in mg/kg product, which cause inhibition of 50% of the ulcerations caused by cysteamine.

[5] = po, 1 h, read-out: p.o.: ED50 (inhibition of convulsions induced by picrotoxin)
[6] = Table 2, (+)[3H]SKF10,047, guinea-pig cerebral membranes, read-out: IC50 (bonding affinity to sigma receptors)
[7] = Table 3, read-out: sigma rec. IC50
[8] = 0.25 mg/kg orally, scopolamine 1 mg/kg i.p. 30 minutes later, latency after 24 hours, hydrochloride
[9] = IC50 (bonding affinity to sigma receptors), Table 2, (+)[3H]SKF10,047, guinea-pig cerebral membranes

T3 sequence (Q60492 whole entry): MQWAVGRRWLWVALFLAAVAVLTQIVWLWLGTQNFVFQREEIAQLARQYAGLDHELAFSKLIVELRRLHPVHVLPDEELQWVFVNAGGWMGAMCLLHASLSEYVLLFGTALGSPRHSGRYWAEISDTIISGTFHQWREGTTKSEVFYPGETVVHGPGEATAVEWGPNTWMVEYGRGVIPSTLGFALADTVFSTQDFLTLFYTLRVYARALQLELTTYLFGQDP
T1 sequence (P41144 whole entry): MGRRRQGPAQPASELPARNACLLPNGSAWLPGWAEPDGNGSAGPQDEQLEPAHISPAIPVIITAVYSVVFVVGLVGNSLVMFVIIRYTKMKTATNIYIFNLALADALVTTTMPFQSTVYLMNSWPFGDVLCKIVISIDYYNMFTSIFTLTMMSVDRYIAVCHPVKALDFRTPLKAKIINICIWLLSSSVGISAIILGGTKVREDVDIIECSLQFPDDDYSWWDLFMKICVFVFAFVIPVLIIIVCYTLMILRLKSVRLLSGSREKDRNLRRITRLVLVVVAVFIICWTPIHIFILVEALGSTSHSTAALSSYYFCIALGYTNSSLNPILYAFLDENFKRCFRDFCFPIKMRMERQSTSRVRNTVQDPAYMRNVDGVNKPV
T2 sequence (A0A286XTF2 1-366): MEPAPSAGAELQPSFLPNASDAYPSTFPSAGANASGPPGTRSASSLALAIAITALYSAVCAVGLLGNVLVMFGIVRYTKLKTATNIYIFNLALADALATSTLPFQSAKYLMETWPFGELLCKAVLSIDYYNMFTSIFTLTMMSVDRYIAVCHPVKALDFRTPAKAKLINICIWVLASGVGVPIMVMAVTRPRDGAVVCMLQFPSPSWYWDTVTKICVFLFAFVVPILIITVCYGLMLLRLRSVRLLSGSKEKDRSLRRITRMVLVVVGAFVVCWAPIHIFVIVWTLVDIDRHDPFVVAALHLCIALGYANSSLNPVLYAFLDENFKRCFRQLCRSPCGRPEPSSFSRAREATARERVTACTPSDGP

NC(=O)CN1CCCC1=O [piracetam, reference compound]
% antagonism of the amnesia ([1]; 2048 mg/kg p.o.): 109% | % antagonism of the amnesia ([1]; 2048 mg/kg p.o., listed as piracetam): about 100%

CCC(C[C@@H]1C[C@H]1c1ccccc1)(c1ccsc1)N(C)CC1CC1 (relative stereo) [Example 25, trans-N-Cyclopropylmethyl-α-ethyl-N-methyl-α-(2-phenyl-1-cyclopropylmethyl)-3-thiophenemethylamine]
i.p.: % prot. (inhibition of convulsions induced by picrotoxin) [2]: 50% | p.o.: % prot. (inhibition of convulsions induced by picrotoxin) [2]: 50%

CCC(CC=Cc1ccccc1)(c1ccccc1)N(C)CCC1CC1 (stereo not drawn) [Example 8, α-Cinnamyl-N-cyclopropylethyl-α-ethyl-N-methyl-benzylamine]
IC50 (kappa receptors): 1.52 µM | ED50 [2, 5]: 53.6 mg/kg | IC50 (mu receptors): 2.04 µM | IC50 (PCP receptors): 25.9 µM | IC50 (delta receptors): 7.55 µM | IC50 (sigma receptors; [6]): 0.021 µM

CCC(CC=Cc1ccccc1)(c1ccco1)N(C)CC1CC1 (stereo not drawn) [Example 20, α-Cinnamyl-N-cyclopropylmethyl-α-ethyl-N-methyl-2-furfurylamine]
p.o.: % prot. (inhibition of convulsions induced by picrotoxin) [2]: 60%

CC(C)C(CC=Cc1ccccc1)(c1ccccc1)N(C)CC1CC1 (stereo not drawn) [Example 14, α-Cinnamyl-N-cyclopropylmethyl-α-isopropyl-N-methyl-benzylamine]
IC50 (kappa receptors): 76 µM | IC50 (mu receptors): 34.2 µM | IC50 (PCP receptors): 14.2 µM | IC50 (delta receptors): > 100 µM | IC50 (sigma receptors; [7]): 0.669 µM

CCC(CC=Cc1ccccc1)(NCC1(C)CC1)c1ccccc1 (stereo not drawn) [Example 2, α-Cinnamyl-α-ethyl-N-(1-methylcyclopropyl)-methyl-benzylamine]
p.o.: % prot. (inhibition of convulsions induced by picrotoxin) [2]: 90%

CCC(CC=Cc1ccccc1)(c1ccccc1)N(C)C[C@@H]1C[C@H]1c1ccccc1 (relative stereo) [Example 6, α-Cinnamyl-α-ethyl-N-methyl-N-(trans-2-phenyl-cyclopropyl)-methyl-benzylamine]
IC50 (sigma receptors; [6]): 0.246 µM

CCC(CC=Cc1ccccc1)(c1ccccc1)N(C)CC1CC1 (single isomer, unassigned) [Example 10, (+)-α-Cinnamyl-N-cyclopropyl-methyl-α-ethyl-N-methyl-benzylamine hydrochloride]
IC50 (kappa receptors): 23.8 µM | i.p.: % prot. (inhibition of convulsions induced by picrotoxin) ([2]; hydrochloride): 50% | % antagonism of the amnesia [1, 8]: 76% | Increase AUC 1 2 h ([3]; AUC of alkaline flow rate 1 h to 2 h compared with control animals): 66.2 | Increase in secretion ([3]; maximum increase, anaesthetized rats): 7.5 micro-eq/cm/h | ED50 [4]: 5 mg/kg | IC50 (delta receptors): 67.9 µM | IC50 (sigma receptors; [9]): 0.013 µM | IC50 (sigma receptors; sigma rec. IC50, Table 3): 0.013 µM

CCC(C[C@@H]1C[C@H]1c1ccccc1)(c1ccco1)N(C)CC1CC1 (relative stereo) [Example 23, trans-N-Cyclopropylmethyl-α-ethyl-N-methyl-α-(2-phenyl-1-cyclopropylmethyl)-2-furfurylamine]
i.p.: % prot. (inhibition of convulsions induced by picrotoxin) [2]: 50%

CCC(CC=Cc1ccccc1)(c1ccccc1)N(C)CC1CC1 (single isomer, unassigned) [Example 11, (-)-α-Cinnamyl-N-cyclopropyl-methyl-α-ethyl-N-methyl-benzylamine hydrochloride]
IC50 (kappa receptors): 5.14 µM | i.p.: % prot. (inhibition of convulsions induced by picrotoxin) ([2]; hydrochloride): 70% | % antagonism of the amnesia [1, 8]: 38% | IC50 (delta receptors): 41.6 µM | IC50 (sigma receptors; [9]): 0.102 µM | IC50 (sigma receptors; sigma rec. IC50, Table 3): 0.21 µM

CCC(CC=Cc1ccc(Cl)c(Cl)c1)(c1ccc(Cl)cc1)N(C)CC1CC1 (stereo not drawn) [Example 16, α-(3',4'-Dichloro)cinnamyl-N-cyclopropyl-methyl-α-ethyl-N-methyl-p-chlorobenzylamine]
p.o.: % prot. (inhibition of convulsions induced by picrotoxin) [2]: 60%

CCC(C[C@@H]1C[C@H]1c1ccccc1)(c1cccs1)N(C)CC1CC1 (relative stereo) [Example 24, trans-N-Cyclopropylmethyl-α-ethyl-N-methyl-α-(2-phenyl-1-cyclopropylmethyl)-2-thiophenemethylamine]
IC50 (kappa receptors): 9.1 µM | i.p.: % prot. (inhibition of convulsions induced by picrotoxin) [2]: 50% | p.o.: % prot. (inhibition of convulsions induced by picrotoxin) [2]: 50% | IC50 (mu receptors): 3.02 µM | ED50 [4]: 45.7 mg/kg | IC50 (delta receptors): 57 µM | IC50 (sigma receptors; [6]): 0.029 µM

CCC(CC=Cc1ccccc1)(NC[C@@H]1C[C@H]1c1ccccc1)c1ccccc1 (relative stereo) [Example 3, α-Cinnamyl-α-ethyl-N-(trans-2-phenyl-cyclopropyl)methyl-benzylamine]
IC50 (sigma receptors; [6]): 0.368 µM

CN(CC1CC1)C(C)(CC=Cc1ccccc1)c1ccccc1 (stereo not drawn) [Example 13, α-Cinnamyl-N-cyclopropylmethyl-N-α-dimethyl-benzylamine]
IC50 (kappa receptors): 8.68 µM | ED50 ([2]; ip, 0.5 h, read-out: i.p.: ED50 (inhibition of convulsions induced by picrotoxin)): 32.5 mg/kg | ED50 [2, 5]: 64.4 mg/kg | IC50 (mu receptors): 10.2 µM | IC50 (PCP receptors): 10.5 µM | IC50 (delta receptors): 9.37 µM | IC50 (sigma receptors; [7]): 0.337 µM
